Data as given in patent US11479770B2, “Use of p38 inhibitors to reduce expression of DUX4” (Fulcrum Therapeutics, Inc., priority 2017, dated 2022).

How the values were obtained:
DUX4 target genes = assay: RNA-seq profiling of FSHD myotubes; assay type: cell-based, human; conditions: 1 μM
Excerpt: The 40 bp single-end reads from Illumina had good quality by checking with FastQC (http://www.bioinformatics.babraham.ac.uk/projects/fastqc/). Reads were mapped to hg19 using TopHat v2.1.1 (Kim et al., 2013) with options as “solexa1.3-quals” mode and “no-novel-juncs.” The gene model for TopHat was created by merging known gene in gtf format with kgXref table. Both known gene and kgXref were downloaded from UCSC table browser in hg19 assembly. The read counts were obtained using featureCounts function from Subread package with strandness option as −r 2. Reads were normalized with DESeq2 (Love et al., 2014).
The 40 bp single-end reads from Illumina had good quality by checking with FastQC (http://www.bioinformatics.babraham.ac.uk/projects/fastqc/). Reads were mapped to hg19 using TopHat v2.1.1. The gene model for TopHat was created by merging knownGene in gtf format with kgXref table. Both known gene and kgXref were downloaded from UCSC table browser in hg19 assembly. The read counts were obtained using feature Counts function from Subread package with strandness option as -r 2. Reads were normalized with DESeq2. […] Calculated standard RPKM expression values. […]
In addition, gene expression was also determined in wild type myotubes treated with DMSO. Three replicates for each condition were analyzed by RNA-seq and genes were clustered by the direction and intensity of change.

[1] = system: DUX4 dependent target genes; assay: Predicted reduction of DUX4 dependent target genes in FSHD patient muscle; set-up: species or system human; conditions: from rat muscle concentrations and in vitro FSHD myotube data
Protocol: P38 system target engagement persisted for at least 12 hours following the single dose of FTX-1821 (FIG. 15). P38 system target engagement in trapezius muscle was maximal when plasma and muscle concentrations of FTX-1821 were greater than 20 ng.mL or ng.g and declined at timepoints when exposures decreased. The muscle concentrations of FTX-1821 achieved in the rat study are predicted to result in >70% reduction at Cmax in DUX4 dependent target genes in FSHD patient muscle biopsies based upon in vitro data in FSHD myotubes (above).

[2] = system: MBD3L2 mRNA (DUX4 downstream gene); assay: MBD3L2 mRNA expression (qPCR) in FSHD myotubes; assay type: cell-based, human; conditions: 1 μM
Protocol: On day 0, the media was changed to differentiation media. Plates were removed from the incubator and the growth medium was aspirated, plates were washed once with PBS, 100 μL, for 96-wells and 1 mL for a 6-well plate, 100 μL, or 2 mL of differentiation medium was added per well, 96- or 6-well respectively. Antisense oligonucleotides or drug were added at the desired concentration, and the plates were put back in the incubator and incubated for 3-4 days.
Cells were removed from the incubator and media aspirated. Cells were quickly lysed following one of the following protocols: for lysis in 96-well plates, direct lysis and one-step RT-Preamp qPCR was performed according to the protocol described below. For each 96-well, a mix containing: 19.5 μL Roche Realtime Ready lysis buffer, 0.25 μL RNAse inhibitor, 0.25 μL DNAseI (from Thermo not the included one in the kit) was prepared. 20 μL of the mix was added to each well, mixed 5 times, and incubated 5 minutes at RT or alternatively shaken vigorously for 15 minutes. Lysis was observed under the microscope. Samples were frozen −80° C. at least for 15 minutes.
1-step RT-Preamplification was used for detection of DUX4 downstream genes, i.e., MBD3L2, ZSCAN4, LEUTX, TRIM43, KHDC1L, and POL2RA-VIC was used as endogenous control. Per 10 μL reaction, the reaction mix included: 2.25 μL of RNA (1:10 dilution lysate), 5 μL of Taqman Pre-Amp Master Mix (2×), 0.25 μL of RT enzyme mix (40×), 2.5 μL of Taqman probe set (0.2×)*. * For pooling the TaqMan Assays, equal volumes of each 20× TaqMan® Gene Expression Assay were used, and up to 100 assays were combined. For example, to pool 50 TaqMan assays, 10 μL of each assay were combined in a microcentrifuge tube. The pooled TaqMan assays were diluted using 1× TE buffer so that each assay was at a final concentration of 0.2×. For the above example, 500 μL of 1× TE buffer was added to the pooled TaqMan assays for a total final volume of 1 mL. The QuantStudio7 protocol was used at 48° C. 15 min, 95° C. 10 min, 10 cycles: 95° C. 15 sec, 60° C. 4 min, and 4° C. infinite Samples were then diluted to 50 μL and continued with the qPCR step. Per 10 μL reaction, the reaction mix included: 2 μL of Preamp dilution, 5 μL of Fast Advanced Taqman Master Mix (2×), 0.5 μL of Taqman probe set (20×), and 2.5 μL of H2O. When multiplexing, the volume was adjusted to 10 μL total. The following program was run on the QuantStudio7: 50° C. for 2 min, 95° C. for 30 sec, 40×, 95° C. for 5 sec, 60° C. for 30 sec, and plates were read as per the manufacturers specifications (Thermo).
Wild type myotubes and mature patient-derived FSHD myotubes that express DUX4 protein were treated with DMSO vehicle control or multiple concentrations of various p38α/β inhibitors with different ranges of isoform and kinome selectivity, including SB239063 (FIG. 4A), VX-702 (FIG. 4B), Pamapimod (FIG. 4C), and TAK-715 (FIG. 4D). After treatment, the control and treated cells were processed for realtime PCR quantification of MBD3L2 mRNA (DUX4 downstream gene) and myogenin (MYOG) mRNA (control) expression.

[3] = system: p38 system (phospho MK2 to total MK2 ratio); assay: Rat PD: phospho MK2 to total MK2 ratio in trapezius muscle; assay type: in vivo
Protocol: Approximately 50 mg of muscle tissue was placed on dry ice. Muscle samples were cut, as needed to obtain the 50 mg weight using a clean razor blade per specimen. 50 mg of muscle tissue was placed into a pre-labeled TT1 Covaris bag (Covaris, MA, USA) and kept on dry ice. The TT1 Covaris bag was submerged in liquid nitrogen and the sample was cryofractured in the Covaris cryoPREP (Covaris, MA, USA) on setting “5”. The TT1 bag was rotated 180° and steps 2-a were repeated. The sample was transferred into a pre-weighed/labeled tube and maintained on dry ice until all samples were prepared. Sample weights were recorded. RIPA lysis buffer was prepared (R0278-500ML, Sigma, MO, USA). For 10 ml, two Roche PhosSTOP phosphatase inhibitor tablets and one Roche EDTA-free protease inhibitor tablet were added. To the cryofractured material, 8 μl per mg of RIPA buffer were added to each tube and each tube was vortexed until the lysate was homogeneous. Lysates were maintained on ice until all samples were processed. The lysate was cleared by centrifugation at 13,000 g for 5 minutes at 4° C. The supernatant was transferred to a new tube and snap frozen in liquid nitrogen (setting aside […] for protein assay). To measure the protein content of each sample, a Bradford DC protein assay (5000112, Bio-Rad, CA, USA) was conducted. Samples were diluted 1:20 in PBS for protein assessment.
The homogenized trapezius muscle lysate was assessed using an internally developed Meso Scale Discovery (MSD) multiplexed phospho MK2/total MK2 immunoassay (Meso Scale Diagnostics, MD, USA). For each sample, 50 μL of muscle lysate, equal to 50 μg of protein, was loaded onto the MSD assay. Protein concentrations in muscle lysates were determined by a Bradford DC protein assay as described above. Samples were assessed in duplicate. Muscle samples were incubated on a pre-coated MSD plate overnight at 4° C. while on an orbital shaker (300 rpm) and assessed the following morning.

[4] = rat; oral; clinically relevant plasma exposures
Protocol: Male Sprague Dawley rats (6-8 weeks of age) were supplied by Hilltop Lab Animals, Inc. (USA). Following arrival at Wuxi AppTec, animals were assessed for their general health by a member of veterinary staff or other designated personnel. Animals were acclimated for at least 2 days (upon arrival at WuXi AppTec) before commencement of the study. Animals were individually housed during acclimation and throughout the study. The animal room environment was controlled according to facility operation (target conditions: temperature 20 to 26° C., relative humidity 30 to 70%, 12-hour cycle of lights on and off). Lights, temperature and relative humidity are constantly monitored by AmegaView Environmental Monitoring System. […] Water (reverse osmosis) was provided to the animals ad libitum. […] In study #FULTH-20171120 rats were fasted overnight prior to drug administration: rats were allowed free access to water at all times and were fed 4 hours post dosing. For study #FULTH-20171228 rats were allowed ad-libitum access to food and water throughout the study.
Dose volume was determined by measured body weight prior to dosing. […] Feeding condition: overnight fast, food return 4 hours after dosing.
Blood samples for PK: Approximately 100 μl of blood sample was obtained via jugular vein or tail vein at each pre-defined time point. […]

[5] = rat, single oral dose 0.3 mg/kg

Compound: Cc1c(F)cc(C(=O)NC2CC2)cc1-c1ccc(C(=O)NCC(C)(C)C)cn1 [FTX-1821]
- non-DUX4-regulated genes in total signature (DUX4 target genes; moderate fold changes): 9/86
- expression of differentially expressed (DUX4 pathway) genes by RNA-seq (DUX4 target genes; vs DMSO and wild type): normalized
- predicted reduction at Cmax in DUX4 dependent target genes in FSHD patient muscle biopsies [1]: > 70%
- MBD3L2 mRNA in FSHD1 and FSHD2 primary patient myoblast lines ([2]; to levels similar to healthy control lines): reduction
- MBD3L2 expression levels in four FSHD patient lines ([2]; FTCE-016, -020, -197, -196 myotubes, to levels similar to healthy controls): reduced
- plasma concentration at maximal inhibition of the p38 system in muscle ([3]; rat): greater than 20 ng/mL
- plasma and muscle concentrations at maximal p38 system target engagement ([3]; rat trapezius muscle): greater than 20 ng.mL or ng.g
- time to significant decrease of phospho MK2 to total MK2 ratio ([3]; rat trapezius, single oral dose 0.3 mg/kg): ≤ 1 h
- persistence of p38 system target engagement [3, 5]: at least 12 hours
- phospho MK2 to total MK2 ratio in trapezius muscle [3, 5]: significantly decreased
- Muscle to plasma exposure ratios [4]: ≥ 1
